Test results from ChEMBL document CHEMBL3886312, “Sepiapterin reductase inhibitors for the treatment of pain” (2015).

How the values were obtained:
Sepiapterin reductase [1] = target: T1, Sepiapterin reductase (Homo sapiens, UniProt P35270); test: LC/MS assay: To screen for SPR inhibition, a biochemical assay based on LC/MS (and chromogenic) read-out has been developed. The LC/MS assay monitors the product formation (L-biopterin) and the chromogenic assay measures OD at 420 nm.N-methoxyacetyl serotonin was used as a reference compound (positive control). […] (2) Add 40 uL enzyme/assay buffer.
Sepiapterin reductase [2] = target: T1, Sepiapterin reductase; test: The LC/MS assay monitors the product formation (L-biopterin) and the chromogenic assay measures OD at 420 nm.N-methoxyacetyl serotonin was used as a reference compound (positive control). […] (2) Add 40 uL enzyme/assay buffer.

T1 sequence (P35270 whole entry): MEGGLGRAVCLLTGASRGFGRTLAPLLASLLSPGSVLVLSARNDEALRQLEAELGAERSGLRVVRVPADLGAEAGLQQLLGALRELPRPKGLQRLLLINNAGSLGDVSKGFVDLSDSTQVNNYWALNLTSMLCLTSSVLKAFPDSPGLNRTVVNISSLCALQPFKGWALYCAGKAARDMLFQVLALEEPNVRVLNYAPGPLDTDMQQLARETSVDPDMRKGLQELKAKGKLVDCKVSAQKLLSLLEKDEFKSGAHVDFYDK

- IC50 (Sepiapterin reductase [1]): 1000 nM
- IC50 (Sepiapterin reductase [2]): 1100 nM
Compound: COCC(=O)NCCc1c[nH]c2ccc(NS(C)(=O)=O)cc12
